{
  "source": "paper PMC12715507",
  "about": "“CARF-HAD phosphatase effectors provide immunity during the type III-A CRISPR–Cas response” (Nucleic Acids Research, 2025)",
  "biological_target": "T1, BbChp",
  "T1 construct": "CARF domain (307–528), N-terminal 6xHis",
  "experiment": "thermal shift assay (DSF) titration, Tm […] to […] °C",
  "assay_type": "binding, Bacteroidales bacterium",
  "data": [
    {"smiles": "Nc1ncnc2c1ncn2[C@@H]1O[C@@H]2COP(=O)(O)O[C@H]3[C@@H](O)[C@H](n4cnc5c(N)ncnc54)O[C@@H]3COP(=O)(O)O[C@H]3[C@@H](O)[C@H](n4cnc5c(N)ncnc54)O[C@@H]3COP(=O)(O)O[C@H]3[C@@H](O)[C@H](n4cnc5c(N)ncnc54)O[C@@H]3COP(=O)(O)O[C@H]2[C@H]1O", "note": "[cA4]", "values": [
      {"measurement": "Kd", "result": 0.273, "unit": "µM"}
    ]}
  ]
}
